Laboratory results taken from ChEMBL document CHEMBL3124787, “Discovery of novel bis-oxazolidinone compounds as potential potent and selective antitubercular agents” (Bioorg Med Chem Lett, 2014).
Converted amounts (≈) assume the structure as drawn.

Experiments:
[1] = system: Pseudomonas aeruginosa; assay: Antibacterial activity against Pseudomonas aeruginosa ATCC 27853 assessed as growth inhibition after 18 hrs by broth microdilution method; assay type: functional; conditions: ATCC 27853, 18 h
[2] = system: Vero; assay: Cytotoxicity against African green monkey Vero cells after 48 hrs by MTT assay; assay type: cell-based; conditions: Chlorocebus sabaeus
[3] = system: Mycolicibacterium smegmatis; assay: Antibacterial activity against Mycobacterium smegmatis assessed as growth inhibition after 18 hrs by broth microdilution method; assay type: functional
[4] = system: Staphylococcus aureus; assay: Antibacterial activity against methicillin-susceptible Staphylococcus aureus ATCC 6538 assessed as growth inhibition after 18 hrs by broth microdilution method; assay type: functional; conditions: ATCC 6538, 18 h
[5] = system: Mycobacterium tuberculosis; assay: Antitubercular activity against Mycobacterium tuberculosis H37RV ATCC 27294 assessed as growth inhibition after 3 to 11 days by microdilution method; assay type: functional
[6] = system: Staphylococcus aureus; assay: Antibacterial activity against methicillin-resistant Staphylococcus aureus ATCC 43300 assessed as growth inhibition after 18 hrs by broth microdilution method; assay type: functional; conditions: ATCC 43300, 18 h
[7] = Selectivity index, ratio of IC50 for African green monkey Vero cells to MIC for Mycobacterium tuberculosis H37RV ATCC 27294; assay type: toxicity, cell-based; conditions: read-out: Selectivity Index
[8] = system: Staphylococcus aureus; assay: Antibacterial activity against methicillin-susceptible Staphylococcus aureus CMCC 26003 assessed as growth inhibition after 18 hrs by broth microdilution method; assay type: functional; conditions: CMCC 26003, 18 h
[9] = Aqueous solubility of the compound by HPLC analysis; assay type: physicochemical
[10] = system: Staphylococcus aureus; assay: Antibacterial activity against methicillin-susceptible Staphylococcus aureus ATCC 25923 assessed as growth inhibition after 18 hrs by broth microdilution method; assay type: functional; conditions: ATCC 25923, 18 h
[11] = system: Staphylococcus aureus; assay: Antibacterial activity against methicillin-resistant Staphylococcus aureus ATCC 33591 assessed as growth inhibition after 18 hrs by broth microdilution method; assay type: functional; conditions: ATCC 33591, 18 h
[12] = system: Escherichia coli; assay: Antibacterial activity against Escherichia coli ATCC 25922 assessed as growth inhibition after 18 hrs by broth microdilution method; assay type: functional; conditions: ATCC 25922, 18 h
[13] = Lipophilicity, log P of the compound by HPLC analysis; assay type: physicochemical
[14] = system: Staphylococcus aureus; assay: Antibacterial activity against methicillin-susceptible Staphylococcus aureus ATCC 29213 assessed as growth inhibition after 18 hrs by broth microdilution method; assay type: functional; conditions: ATCC 29213, 18 h

| Compound | MIC99 [1] [µg/mL] | IC50 [2] [µg/mL] | MIC99 [3] [µg/mL] | MIC99 [4] [µg/mL] | MIC [5] [µg/mL] | MIC99 [6] [µg/mL] | selectivity ratio [7] | MIC99 [8] [µg/mL] | solubility [9] [µM] | MIC99 [10] [µg/mL] | MIC99 [11] [µg/mL] | MIC99 [12] [µg/mL] | logP [13] | MIC99 [14] [µg/mL] |
| --- | --- | --- | --- | --- | --- | --- | --- | --- | --- | --- | --- | --- | --- | --- |
| CC(=O)NC[C@H]1CN(c2ccc(OC[C@@H]3CN(c4ccccc4)C(=O)O3)c(F)c2)C(=O)O1 | > 32 | > 5000 | > 64 | 8 (≈ 18 µM) | 0.125 (≈ 0.282 µM) | 16 (≈ 36.1 µM) | > 40000 | 16 (≈ 36.1 µM) | 14 (≈ 6.21 µg/mL) | 16 (≈ 36.1 µM) | 16 (≈ 36.1 µM) | > 32 | 1.78 | 16 (≈ 36.1 µM) |
| CC(=O)NC[C@H]1CN(c2ccc(OC[C@H]3CN(c4ccccc4)C(=O)O3)c(F)c2)C(=O)O1 | > 32 | 63.6 (≈ 143 µM) | 32 (≈ 72.2 µM) | 4 (≈ 9.02 µM) | 0.25 (≈ 0.564 µM) | 8 (≈ 18 µM) | 254 | 4 (≈ 9.02 µM) | 164 (≈ 72.7 µg/mL) | 8 (≈ 18 µM) | 16 (≈ 36.1 µM) | > 32 | 1.86 | 8 (≈ 18 µM) |
